Results on 1 compound are retold here after patent publication US20120283304A1, “Formulations of Temozolomide for Parenteral Administration” (SAHAJ LIFE SCIENCES PVT. LTD., priority 2009, published 2012).

For data set [1] the following is noted: cited from earlier work.
For data set [2] the following is noted: cited from earlier work. This is another data set of the same source.
Data set [3] is described as follows: Chemical parameters (assay and impurities) of the lyophilised formulations. Format: physicochemical. How it is done: The formulations were analysed and the data is tabulated below: […]

Like-named read-outs stand apart in the source and are kept apart here.

Take `Cn1nnc2c(C(N)=O)ncn2c1=O` [Temozolomide, 3-methyl-8-carbamoyl-imidazo[5,1-d]-1,2,3,5-tetrazin-4(3H)-one]: the Solubility in water entry in data set [1] is listed as “only slightly soluble”. Moreover, in data set [2] (acidic pH less than 5), the Stability entry was “stable”. For the same compound, in data set [2] (pH greater than 7), the Stability entry is recorded as “unstable”. In data set [3], the “% Assay” value stood at 100.3%, the “% Impurities AIC” value is 0.02%, the “% Impurities Any other maximum impurity” value was “Not detected” and the “% Impurities MTC-1” value is reported as “Not detected”. For the same compound, the “% Impurities Total impurities” value in data set [3] is on record as 0.04%.
